The values that follow come from ChEMBL document CHEMBL4706623, “GPR52 Antagonist Reduces Huntingtin Levels and Ameliorates Huntington's Disease-Related Phenotypes” (J Med Chem, 2021).

SMILES strings stand for the structures. The source made the active and inactive calls. The calls are words filed in the database; no cut-off is given here.

In test [1] the test system is Mus musculus. Put plainly: Neuroprotective activity in HdhQ140 knock-in mouse model assessed as decrease in staining intensity of microglia in striatum at 5 mg/kg, iv QD for 4 weeks by Iba1 staining based immunostaining analysis. The test is classed as functional, organism-based.
For test [2], the target named is G-protein coupled receptor 52 (Homo sapiens, UniProt Q9Y2T5). Put plainly: Antagonist activity at GPR52 (unknown origin) expressed in HEK293 cells assessed as inhibition of WO459-induced cAMP accumulation preincubated for 15 mins followed by WO459 addition and measured after 30 mins by LANCE Ultra cAMP kit based microplate reader analysis. Particulars: read-out: IC50. The class given is functional, cell-based.
Sequence of G-protein coupled receptor 52 (Q9Y2T5 whole entry): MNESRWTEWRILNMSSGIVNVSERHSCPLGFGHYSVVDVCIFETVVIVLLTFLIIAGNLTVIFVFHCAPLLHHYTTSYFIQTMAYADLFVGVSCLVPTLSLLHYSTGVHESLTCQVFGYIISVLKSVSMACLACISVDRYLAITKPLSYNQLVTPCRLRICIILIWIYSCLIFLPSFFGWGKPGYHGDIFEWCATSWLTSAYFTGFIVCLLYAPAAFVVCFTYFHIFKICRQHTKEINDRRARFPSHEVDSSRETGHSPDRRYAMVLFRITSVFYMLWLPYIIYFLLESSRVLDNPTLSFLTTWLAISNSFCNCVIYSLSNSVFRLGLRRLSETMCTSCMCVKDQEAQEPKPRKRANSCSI

Test [3] has as its target G-protein coupled receptor 52 (Mus musculus) (UniProt P0C5J4). Put plainly: Antagonist activity at GPR52 in mouse STHdhQ7/111 cells assessed as decrease in mHTT levels incubated for 48 hrs in presence of 2B7-terbium and 2166-D2 antibodies by TR-FRET. The test is classed as cell-based. Particulars: filed as antagonist, dose 0.3-10 µM. For orientation: TR-FRET usually uses a lanthanide donor and a delayed reading to cut background.

For test [4] the target is unchanged. In words: In vivo antagonist activity at GPR52 in HdhQ140 knock-in mouse model assessed as reduction in mHTT levels in striatum at 0.5 mM, icv QD for 3 weeks by TR-FRET analysis. The class given is functional.
The target is the same in test [5]. In words: In vivo antagonist activity at GPR52 in HdhQ140 knock-in mouse model assessed as reduction in mHTT aggregate levels in striatum at 0.5 mM, icv QD for 3 weeks by S380 antibody based immunostaining based analysis. The class given is functional.
Test [6] deals with Mus musculus. In words: Neuroprotective activity in HdhQ140 knock-in mouse model assessed as decrease in staining intensity of microglia in striatum at 0.5 mM, icv QD for 3 weeks by Iba1staining based immunostaining analysis. The class given is functional, organism-based.
Test [7] has as its target G-protein coupled receptor 52 (Mus musculus) (UniProt P0C5J4). In words: In vivo antagonist activity at GPR52 in HdhQ140 knock-in mouse model assessed as reduction in soluble mHTT levels in striatum at 5 mg/kg, iv QD for 4 weeks by TR-FRET analysis. The test is classed as functional, organism-based.
Test [8] shares this target. Put plainly: In vivo antagonist activity at GPR52 in HdhQ140 knock-in mouse model assessed as reduction in soluble mHTT levels in cortex at 5 mg/kg, iv QD for 4 weeks by TR-FRET analysis. The class given is functional, organism-based.
For test [9] the target is unchanged. Put plainly: In vivo antagonist activity at GPR52 in HdhQ140 knock-in mouse model assessed as reduction in mHTT aggregate levels in striatum in presence of 4C9 antibody labelled with terbium at 5 mg/kg, iv QD for 4 weeks by TR-FRET analysis. The class given is functional, organism-based.
Test [10] has the same target. In words: In vivo antagonist activity at GPR52 in HdhQ140 knock-in mouse model assessed as reduction in mHTT aggregate levels in striatum in presence of 4C9 antibody labelled with D2 fluorophore at 5 mg/kg, iv QD for 4 weeks by TR-FRET analysis. The class given is functional, organism-based.
The target is the same in test [11]. Put plainly: In vivo antagonist activity at GPR52 in HdhQ140 knock-in mouse model assessed as reduction in mHTT aggregate levels in cortex in presence of 4C9 antibody labelled with terbium at 5 mg/kg, iv QD for 4 weeks by TR-FRET analysis. The class given is functional, organism-based.
The target is the same in test [12]. In words: In vivo antagonist activity at GPR52 in HdhQ140 knock-in mouse model assessed as reduction in mHTT aggregate levels in cortex in presence of 4C9 antibody labelled with D2 fluorophore at 5 mg/kg, iv QD for 4 weeks by TR-FRET analysis. The class given is functional, organism-based.
For test [13] the target is unchanged. In words: In vivo antagonist activity at GPR52 in wild type mouse model assessed as reduction in mHTT aggregate levels in cortex in presence of 4C9 antibody labelled with terbium at 5 mg/kg, iv QD for 4 weeks by TR-FRET analysis. The class given is functional, organism-based.
Test [14] has the same target. Put plainly: In vivo antagonist activity at GPR52 in wild type mouse model assessed as reduction in mHTT aggregate levels in striatum in presence of 4C9 antibody labelled with D2 fluorophore at 5 mg/kg, iv QD for 4 weeks by TR-FRET analysis. The test is classed as functional, organism-based.
Test [15] has as its target Beta-2 adrenergic receptor (Homo sapiens) (UniProt P07550). In words: Antagonist activity at beta2 adrenergic receptor (unknown origin) expressed in HEK293 cells assessed as inhibition of isoproterenol-induced cAMP accumulation. The test is classed as functional, cell-based.
For test [16], the target named is Glucagon receptor (Homo sapiens) (UniProt P47871). In words: Antagonist activity at GCGR (unknown origin) expressed in HEK293 cells assessed as inhibition of glucagon-induced cAMP accumulation. The test is classed as functional, cell-based. Background: Changes in cAMP serve as a functional read-out for many G protein-coupled receptors.
Sequence of Glucagon receptor (Homo sapiens) (P47871 whole entry): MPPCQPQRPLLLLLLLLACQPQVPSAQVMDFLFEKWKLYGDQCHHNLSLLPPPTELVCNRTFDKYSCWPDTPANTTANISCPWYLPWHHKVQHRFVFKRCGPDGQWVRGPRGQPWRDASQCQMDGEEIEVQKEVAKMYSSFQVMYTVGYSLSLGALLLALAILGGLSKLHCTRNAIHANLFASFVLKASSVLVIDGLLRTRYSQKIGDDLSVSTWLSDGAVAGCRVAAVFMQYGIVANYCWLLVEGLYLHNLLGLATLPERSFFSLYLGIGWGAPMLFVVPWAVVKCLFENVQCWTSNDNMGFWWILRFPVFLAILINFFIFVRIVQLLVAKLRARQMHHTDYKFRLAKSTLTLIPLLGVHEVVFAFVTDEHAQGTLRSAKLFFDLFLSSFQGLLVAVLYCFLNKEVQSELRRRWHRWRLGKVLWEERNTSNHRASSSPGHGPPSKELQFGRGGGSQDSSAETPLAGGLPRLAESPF
In test [17] the target is T1, Alpha-1D adrenergic receptor (Homo sapiens) (UniProt P25100).
T1 sequence (whole entry): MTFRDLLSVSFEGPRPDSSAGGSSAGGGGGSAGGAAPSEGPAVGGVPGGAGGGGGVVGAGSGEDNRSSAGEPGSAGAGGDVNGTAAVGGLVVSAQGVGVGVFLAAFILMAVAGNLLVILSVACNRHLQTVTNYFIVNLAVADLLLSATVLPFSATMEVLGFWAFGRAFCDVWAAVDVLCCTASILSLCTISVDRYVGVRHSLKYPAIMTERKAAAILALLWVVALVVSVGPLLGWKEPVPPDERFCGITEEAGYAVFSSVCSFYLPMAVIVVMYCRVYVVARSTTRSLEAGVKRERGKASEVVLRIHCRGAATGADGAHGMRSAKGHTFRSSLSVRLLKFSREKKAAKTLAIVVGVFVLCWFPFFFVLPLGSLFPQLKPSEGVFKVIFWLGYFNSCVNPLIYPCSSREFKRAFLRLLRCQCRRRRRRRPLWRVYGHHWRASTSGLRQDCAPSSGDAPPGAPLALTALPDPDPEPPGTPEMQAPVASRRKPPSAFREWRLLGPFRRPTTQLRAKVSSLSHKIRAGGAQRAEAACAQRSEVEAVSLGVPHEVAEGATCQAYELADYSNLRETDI
In words: Antagonist activity at alpha1D adrenergic receptor (unknown origin) expressed in HEK293 cells assessed as inhibition of phenylephrine-induced cAMP accumulation. The class given is functional, cell-based.

For test [18], the target named is D(2) dopamine receptor (Homo sapiens) (UniProt P14416). In words: Antagonist activity at dopamine D2 receptor (unknown origin) expressed in HEK293 cells assessed as inhibition of dopamine-induced cAMP accumulation. The test is classed as functional, cell-based.
Sequence of D(2) dopamine receptor (Homo sapiens) (P14416 whole entry): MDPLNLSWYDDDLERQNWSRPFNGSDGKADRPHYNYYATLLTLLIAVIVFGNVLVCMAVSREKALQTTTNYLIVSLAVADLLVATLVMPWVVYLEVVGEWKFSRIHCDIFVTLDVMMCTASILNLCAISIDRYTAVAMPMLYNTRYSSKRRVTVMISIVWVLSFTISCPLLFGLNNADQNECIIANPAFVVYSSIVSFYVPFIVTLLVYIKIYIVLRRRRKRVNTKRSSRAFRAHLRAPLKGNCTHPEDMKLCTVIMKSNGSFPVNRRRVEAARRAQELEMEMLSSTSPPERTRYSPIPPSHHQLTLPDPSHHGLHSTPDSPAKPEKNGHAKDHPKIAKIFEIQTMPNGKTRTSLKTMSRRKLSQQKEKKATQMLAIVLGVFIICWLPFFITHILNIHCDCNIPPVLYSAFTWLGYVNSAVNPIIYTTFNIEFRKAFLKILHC

Sequence of G-protein coupled receptor 52 (Mus musculus) (P0C5J4 whole entry): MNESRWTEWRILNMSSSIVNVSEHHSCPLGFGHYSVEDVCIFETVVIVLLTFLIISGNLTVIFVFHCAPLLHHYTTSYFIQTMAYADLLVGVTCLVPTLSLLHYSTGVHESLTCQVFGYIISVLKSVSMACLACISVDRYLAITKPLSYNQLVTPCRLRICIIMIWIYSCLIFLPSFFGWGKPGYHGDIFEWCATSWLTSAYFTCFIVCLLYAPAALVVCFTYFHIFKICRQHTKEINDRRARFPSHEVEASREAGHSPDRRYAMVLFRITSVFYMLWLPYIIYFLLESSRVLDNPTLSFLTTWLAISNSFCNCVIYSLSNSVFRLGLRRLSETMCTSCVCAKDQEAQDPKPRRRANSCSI
Sequence of Beta-2 adrenergic receptor (Homo sapiens) (P07550 whole entry, looked up): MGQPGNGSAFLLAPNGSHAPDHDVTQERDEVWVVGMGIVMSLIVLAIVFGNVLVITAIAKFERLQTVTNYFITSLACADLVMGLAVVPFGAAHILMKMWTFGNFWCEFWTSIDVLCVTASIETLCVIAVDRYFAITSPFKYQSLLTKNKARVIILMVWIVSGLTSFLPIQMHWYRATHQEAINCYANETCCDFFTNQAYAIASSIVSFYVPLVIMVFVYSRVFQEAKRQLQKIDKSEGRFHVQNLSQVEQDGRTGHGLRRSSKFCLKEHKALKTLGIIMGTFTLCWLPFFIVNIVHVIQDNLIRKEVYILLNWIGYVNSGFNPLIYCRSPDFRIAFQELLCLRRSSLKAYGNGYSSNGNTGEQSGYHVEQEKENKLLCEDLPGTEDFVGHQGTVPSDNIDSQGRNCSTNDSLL

As to `O=C(/C=C/CCc1ccccc1)c1ccco1`, the outcome (with Mus musculus [1]; in [4]; in [5]; in the test with Mus musculus [6]; in test [7]; in test [9]) was Active. In addition, the outcome in test [10] was Active. In addition, in test [2], the half-maximal inhibitory concentration (IC50) was 630 nM. In addition, the Activity result in test [3] is “Dose-dependent effect”. Besides, the outcome in test [8], in test [11], in test [12], in [13], in [14] and in test [15] was inactive. Also, the result in test [16], in test [17] and in test [18] was inactive.

As usually defined, the IC50 is the concentration that inhibits the measured activity by half.
